Assay results taken from patent US11534412B2, “Application of totarol and pharmaceutical composition containing totarol” (Emergopharm SP. Z O.O. SP.K., priority 2017, dated 2022).

Tested on: Lactobacillus plantarum - clinical strain
Test: Determination of the MIC value of totarol, broth dilution in 96-well plates with OD and quantitative culture
Assay type: cell-based
Conditions: for OD, average of 3 measurements / OD: 620 nm
Experimental: Test of antibacterial activity of totarol using DMI (dimethylisosorbide) as a solvent.
A suspension of 0.5 McF in physiological saline (suspension density 10^8 cfu/ml) was prepared from a 24-hour culture of a standard strain. 1 ml of the suspension was collected to 9 ml of a TSB broth ([…]). Suspensions with a dilution of 10^−6 were prepared in the described way. A suspension with a cell density of 10^5 cfu/ml was selected for further investigations. For each strain, 2 96-well plates were prepared: the first one was intended for the OD measurement, the second one—for quantitative culture on solid media. • A/ to wells B1-D1, B2-D2 and B-D 4-11, 100 µl of the broth were added; • B/ to wells B3-D3, 200 µl of the broth were added; • C/ to wells B1-D1, 1 µl of stock I was added; • D/ to wells B2-D2, 1 µl of stock II was added; • E/ to wells B3-D3, 2 µl of stock III were added. Using a multichannel pipette, 100 µl of the sample were collected from each of the B3-D3 wells and placed in wells B4-D4 (mixing by sucking the content in and letting it out for 5 times). The pipette tips were replaced and 100 µl of the content were collected from of the B4-D4 wells, and placed in wells B5-D5, mixing as previously. These operations were repeated through the wells B11-D11. The content in the B11-D11 wells was mixed, and 100 µl of the fluid were collected and discarded. This way, a series of dilutions of totarol samples in DMI in the range of 0.32% to 0.0004% was obtained. Then, 100 µl of a corresponding bacterial culture were added to the wells B, C, D 1-11. In consequence, a change in the final concentration range occurred, to 0.16%-0.0002%. Control Preparation: • Negative control: 100 µl of the broth+1 pl DMI were added to the Al well. • Positive control (I): 100 µl of the broth with the bacterial culture were added to the wells E1-G1. • Diluent positive control (II): 100 µl of the broth with the bacterial culture+1 pl DMI were added to the wells E2-G2. The OD value in the individual wells was read at the wavelength of 620 nm (read time 0). From the second 96-well plate, a culture was inoculated by a quantitative method from every dilution onto a well with a proper solid medium, and incubated for 24 h at 37° C. under aerobic or anaerobic conditions, depending on the strain. The plates were incubated under aerobic conditions or in an atmosphere of an elevated CO2 concentration (for the strains requiring it) in an incubator at 37° C. The OD was read after 8 h, 16 h, and 24 h, respectively. Before every OD measurement, the contents of the wells were mixed delicately. In parallel to the OD readout, cultures we inoculated from the second 96-well plate, from every dilution, into plates with a proper solid medium, and incubated for 24 h at 37° C., under aerobic or anaerobic conditions. For the analysis of the experimental results, an average value of the OD measurement obtained from three repetitions in the individual times (0, 8, 16, and 24 h) for the individual microbes (Gardnerella vaginalis, Streptococcus agalactiae, Enterococcus faecalis, Lactobacillus gasseri/plantarum) was taken. Additionally, the number of bacteria grown on solid media was taken into account. The results of the tests confirm the specific, concentration-dependent selectiveness, and the high antibacterial effectiveness of totarol against the pathogenic microorganisms: Gardnerella vaginalis, Streptococcus agalactiae, Enterococcus faecalis at low MIC values safe for bacteria of the Lactobacillus genus.

Compound: CC(C)c1c(O)ccc2c1CC[C@H]1C(C)(C)CCC[C@]21C [Totarol, totarol]
- MIC value (L. plantarum): 0.08%
- viable count by quantitative culture (cfu/ml) (totarol 0.0002%, 0 h): 3.9 × 10^5 cfu/ml
- OD, average of 3 measurements (totarol 0.0002%, 0 h): 0.291
- viable count by quantitative culture (cfu/ml) (totarol 0.0002%, 8 h): 3.5 × 10^5 cfu/ml
- OD, average of 3 measurements (totarol 0.0002%, 8 h): 0.305
- viable count by quantitative culture (cfu/ml) (totarol 0.0002%, 16 h): 4.2 × 10^6 cfu/ml
- OD, average of 3 measurements (totarol 0.0002%, 16 h): 0.854
- viable count by quantitative culture (cfu/ml) (totarol 0.0002%, 24 h): 2.9 × 10^7 cfu/ml
- OD (totarol 0.0002%, 24 h): 1.469
- viable count by quantitative culture (cfu/ml) (totarol 0.0004%, 0 h): 2.1 × 10^5 cfu/ml
- OD, average of 3 measurements (totarol 0.0004%, 0 h): 0.304
- viable count by quantitative culture (cfu/ml) (totarol 0.0004%, 8 h): 2 × 10^5 cfu/ml
- OD, average of 3 measurements (totarol 0.0004%, 8 h): 0.309
- viable count by quantitative culture (cfu/ml) (totarol 0.0004%, 16 h): 3.9 × 10^6 cfu/ml
- OD, average of 3 measurements (totarol 0.0004%, 16 h): 0.892
- viable count by quantitative culture (cfu/ml) (totarol 0.0004%, 24 h): 3.1 × 10^7 cfu/ml
- OD (totarol 0.0004%, 24 h): 1.508
- viable count by quantitative culture (cfu/ml) (totarol 0.0007%, 0 h): 6.5 × 10^5 cfu/ml
- OD, average of 3 measurements (totarol 0.0007%, 0 h): 0.292
- viable count by quantitative culture (cfu/ml) (totarol 0.0007%, 8 h): 4.5 × 10^5 cfu/ml
- OD, average of 3 measurements (totarol 0.0007%, 8 h): 0.300
- viable count by quantitative culture (cfu/ml) (totarol 0.0007%, 16 h): 8.1 × 10^6 cfu/ml
- OD, average of 3 measurements (totarol 0.0007%, 16 h): 0.902
- viable count by quantitative culture (cfu/ml) (totarol 0.0007%, 24 h): 5.1 × 10^7 cfu/ml
- OD (totarol 0.0007%, 24 h): 1.504
- viable count by quantitative culture (cfu/ml) (totarol 0.0013%, 0 h): 3.8 × 10^5 cfu/ml
- OD, average of 3 measurements (totarol 0.0013%, 0 h): 0.293
- viable count by quantitative culture (cfu/ml) (totarol 0.0013%, 8 h): 3.2 × 10^5 cfu/ml
- OD, average of 3 measurements (totarol 0.0013%, 8 h): 0.305
- viable count by quantitative culture (cfu/ml) (totarol 0.0013%, 16 h): 5.1 × 10^6 cfu/ml
- OD, average of 3 measurements (totarol 0.0013%, 16 h): 0.913
- viable count by quantitative culture (cfu/ml) (totarol 0.0013%, 24 h): 4.1 × 10^7 cfu/ml
- OD (totarol 0.0013%, 24 h): 1.521
- viable count by quantitative culture (cfu/ml) (totarol 0.0025%, 0 h): 2.8 × 10^5 cfu/ml
- OD, average of 3 measurements (totarol 0.0025%, 0 h): 0.284
- viable count by quantitative culture (cfu/ml) (totarol 0.0025%, 8 h): 1.0 × 10^5 cfu/ml
- OD, average of 3 measurements (totarol 0.0025%, 8 h): 0.303
- viable count by quantitative culture (cfu/ml) (totarol 0.0025%, 16 h): 8.4 × 10^6 cfu/ml
- OD, average of 3 measurements (totarol 0.0025%, 16 h): 0.914
- viable count by quantitative culture (cfu/ml) (totarol 0.0025%, 24 h): 1.4 × 10^7 cfu/ml
- OD (totarol 0.0025%, 24 h): 1.552
- viable count by quantitative culture (cfu/ml) (totarol 0.005%, 0 h): 4.2 × 10^5 cfu/ml
- OD, average of 3 measurements (totarol 0.005%, 0 h): 0.288
- viable count by quantitative culture (cfu/ml) (totarol 0.005%, 8 h): 1.2 × 10^5 cfu/ml
- OD, average of 3 measurements (totarol 0.005%, 8 h): 0.300
- viable count by quantitative culture (cfu/ml) (totarol 0.005%, 16 h): 1.8 × 10^6 cfu/ml
- OD, average of 3 measurements (totarol 0.005%, 16 h): 0.895
- viable count by quantitative culture (cfu/ml) (totarol 0.005%, 24 h): 3.8 × 10^7 cfu/ml
- OD (totarol 0.005%, 24 h): 1.476
- viable count by quantitative culture (cfu/ml) (totarol 0.01%, 0 h): 5.5 × 10^5 cfu/ml
- OD, average of 3 measurements (totarol 0.01%, 0 h): 0.295
- viable count by quantitative culture (cfu/ml) (totarol 0.01%, 8 h): 5 × 10^5 cfu/ml
- OD, average of 3 measurements (totarol 0.01%, 8 h): 0.298
- viable count by quantitative culture (cfu/ml) (totarol 0.01%, 16 h): 6.4 × 10^6 cfu/ml
- OD, average of 3 measurements (totarol 0.01%, 16 h): 0.871
- viable count by quantitative culture (cfu/ml) (totarol 0.01%, 24 h): 3.4 × 10^7 cfu/ml
- OD (totarol 0.01%, 24 h): 1.445
- viable count by quantitative culture (cfu/ml) (totarol 0.02%, 0 h): 7.5 × 10^5 cfu/ml
- OD, average of 3 measurements (totarol 0.02%, 0 h): 0.330
- viable count by quantitative culture (cfu/ml) (totarol 0.02%, 8 h): 1.0 × 10^5 cfu/ml
- OD, average of 3 measurements (totarol 0.02%, 8 h): 0.299
- viable count by quantitative culture (cfu/ml) (totarol 0.02%, 16 h): 5.1 × 10^6 cfu/ml
- OD, average of 3 measurements (totarol 0.02%, 16 h): 0.837
- viable count by quantitative culture (cfu/ml) (totarol 0.02%, 24 h): 3.1 × 10^7 cfu/ml
- OD (totarol 0.02%, 24 h): 1.375
- viable count by quantitative culture (cfu/ml) (totarol 0.04%, 0 h): 2.6 × 10^5 cfu/ml
- OD, average of 3 measurements (totarol 0.04%, 0 h): 0.398
- viable count by quantitative culture (cfu/ml) (totarol 0.04%, 8 h): 1.6 × 10^5 cfu/ml
- OD, average of 3 measurements (totarol 0.04%, 8 h): 0.370
- viable count by quantitative culture (cfu/ml) (totarol 0.04%, 16 h): 2.4 × 10^5 cfu/ml
- OD, average of 3 measurements (totarol 0.04%, 16 h): 0.379
- viable count by quantitative culture (cfu/ml) (totarol 0.04%, 24 h): 2.4 × 10^5 cfu/ml
- OD (totarol 0.04%, 24 h): 0.397
- viable count by quantitative culture (cfu/ml) (totarol 0.08%, 0 h): 3.2 × 10^5 cfu/ml
- OD, average of 3 measurements (totarol 0.08%, 0 h): 0.401
- viable count by quantitative culture (cfu/ml) (totarol 0.08%, 8 h): 1.2 × 10^4 cfu/ml
- OD, average of 3 measurements (totarol 0.08%, 8 h): 0.413
- viable count by quantitative culture (cfu/ml) (totarol 0.08%, 16 h): 3.5 × 10^4 cfu/ml
- OD, average of 3 measurements (totarol 0.08%, 16 h): 0.368
- viable count by quantitative culture (cfu/ml) (totarol 0.08%, 24 h): 5 × 10^4 cfu/ml
- OD (totarol 0.08%, 24 h): 0.357
- viable count by quantitative culture (cfu/ml) (totarol 0.16%, 0 h): 3.7 × 10^5 cfu/ml
- OD, average of 3 measurements (totarol 0.16%, 0 h): 0.472
- viable count by quantitative culture (cfu/ml) (totarol 0.16%, 8 h): 4 × 10^4 cfu/ml
- OD, average of 3 measurements (totarol 0.16%, 8 h): 0.320
- viable count by quantitative culture (cfu/ml) (totarol 0.16%, 16 h): 7.1 × 10^4 cfu/ml
- OD, average of 3 measurements (totarol 0.16%, 16 h): 0.346
- viable count by quantitative culture (cfu/ml) (totarol 0.16%, 24 h): 4.1 × 10^4 cfu/ml
- OD (totarol 0.16%, 24 h): 0.371
